Test results taken from US20150342968A1, “STABLE PHARMACEUTICAL COMPOSITION FOR TREATING OSTEOPOROSIS” (LANDSTEINER SCIENTIFIC S.A. DE C.V., priority 2012, published 2015).
Where “and” joins values, the source holds several entries; their conditions need not be identical. Equal entries are not always repeated.

Experiments:
[1] = cited from earlier work
[2] = Evaluation of the stability of risedronate sodium in tablets of composition in Table 1; assay type: physicochemical
Protocol: (§1) Two stability tests of vitamin D3 and risedronate sodium were performed at different conditions by subjecting the tablets that were prepared according to the composition in Table 1. The conditions were as follows:
(§2) Two batches of the composition were subjected to different conditions to evaluate the stability of vitamin D3 and risedronate sodium. The conditions were the following: 30° C./65% RH, 40° C./75% RH and Cycled 40° C./75% RH-Cooling (2°-8° C.). The samples were submitted for 4 weeks and the following results were obtained.
Evaluation of the Stability of Risedronate Sodium

[3] = Dissolution buffer stage pH 6.8 of tablets of composition in Table 1; assay type: physicochemical
Protocol: as §1
It is evident that the risedronate sodium dissolves quickly in a medium with pH 6.8, obtaining more than 100% in the first 10 minutes.

[4] = Dissolution acid stage (gastro-resistance) of tablets of composition in Table 1; assay type: physicochemical
Protocol: as §1
The product complies with the gastro-resistant stage, because it has an enteric coating to protect the mucous membranes while it passes through the gastrointestinal system.

[5] = cited from earlier work; remark: listed apart in the source
[6] = Evaluation of the stability of vitamin D3 in tablets of composition in Table 1; assay type: physicochemical
Protocol: as §1
Evaluation Of The Stability Of Vitamin D3
as §2

With `O=P(O)(O)C(O)(Cc1cccnc1)P(=O)(O)O` [Risedronate sodium, risedronate sodium] as the compound, how does the “injected dose recovered in the urine” value ([1]; after 28 days) read?
Its value is 85%.

And the Tmax ([1]; after an oral dose)?
The Tmax was roughly 1 h.

What about the “part of the absorbed dose excreted in the urine” value ([1]; first 24 hours) of the same compound?
The value was “One half”.

And the “mean volume of distribution at steady state equilibrium” value ([1]; humans)?
The value was 6.3 L/kg.

What about the “Risedronate sodium stability, Final” value ([2]; Test 1, final (4 weeks)) of the same compound?
Its value is 100.66%.

What about the “Risedronate sodium stability, Initial” value ([2]; Test 1, initial) of the same compound?
Its value is 102.55%.

And the “Risedronate sodium stability, Final” value ([2]; Test 2, final (4 weeks))?
Its value is 96.75%.

What about the “Risedronate sodium stability, Initial” value ([2]; Test 2, initial) of the same compound?
Its value is 100.99%.

And the “Dissolution buffer stage, dissolved” value ([3]; pH 6.8, 5 min)?
Its value is 94.08%.

What about the “Dissolution buffer stage, dissolved” value ([3]; pH 6.8, 10 min) of the same compound?
The value was “more than 100%”.

And the “Dissolution buffer stage, dissolved” value ([3]; pH 6.8, 10 min, listed as Risedronate Sodium 35 mg)?
The value was 100.93%.

What about the “Dissolution buffer stage, dissolved” value ([3]; pH 6.8, 15 min) of the same compound?
Its value is 100.84%.

What about the “Dissolution buffer stage, dissolved” value ([3]; pH 6.8, 20 min) of the same compound?
The value was 100.94%.

And the “Dissolution buffer stage, dissolved” value ([3]; pH 6.8, 30 min)?
Its value is 100.12%.

What about the “Dissolution buffer stage, dissolved” value ([3]; pH 6.8, 45 min) of the same compound?
The value was 100.48%.

What about the “Risedronate sodium Acid Stage % Dissolved” value ([4]; individual samples S1-S6, specification no more than 10.0%) of the same compound?
Its value is 0.97% and 0.56% and 0.80% and 0.95% and 1.19% and 0.71%.

What about the “Risedronate sodium Acid Stage % Dissolved, Maximum” value ([4]; maximum of S1-S6) of the same compound?
The value was 1.19%.

What about the “Risedronate sodium Acid Stage % Dissolved, Mean” value ([4]; mean of S1-S6) of the same compound?
Its value is 0.86%.

And the “Risedronate sodium Acid Stage % Dissolved, Minimum” value ([4]; minimum of S1-S6)?
Its value is 0.56%.

What about the plasmatic protein binding [5] of the same compound?
The plasmatic protein binding was 24%.

With `C=C1CC[C@H](O)C/C1=C/C=C1\CCC[C@]2(C)[C@@H]([C@H](C)CCCC(C)C)CC[C@@H]12` [Vitamin D3, cholecalciferol] as the compound, how does the “Vitamin D3 rating (stability)” value ([6]; Test 1, week 0, 30° C./65% RH) read?
The value was 100.00%.

What about the “Vitamin D3 rating (stability)” value ([6]; Test 1, week 0, 40° C./75% RH) of the same compound?
The value was 100.00%.

And the “Vitamin D3 rating (stability)” value ([6]; Test 1, week 0, Cycled 40° C./75% RH-cooling)?
The value was 100.00%.

What about the “Vitamin D3 rating (stability)” value ([6]; Test 1, week 1, 30° C./65% RH) of the same compound?
Its value is 102.02%.

And the “Vitamin D3 rating (stability)” value ([6]; Test 1, week 1, 40° C./75% RH)?
Its value is 98.34%.

And the “Vitamin D3 rating (stability)” value ([6]; Test 1, week 1, Cycled 40° C./75% RH-cooling)?
Its value is 98.69%.

What about the “Vitamin D3 rating (stability)” value ([6]; Test 1, week 2, 30° C./65% RH) of the same compound?
The value was 99.20%.

And the “Vitamin D3 rating (stability)” value ([6]; Test 1, week 2, 40° C./75% RH)?
Its value is 98.12%.

And the “Vitamin D3 rating (stability)” value ([6]; Test 1, week 2, Cycled 40° C./75% RH-cooling)?
Its value is 97.90%.

What about the “Vitamin D3 rating (stability)” value ([6]; Test 1, week 4, 30° C./65% RH) of the same compound?
The value was 96.39%.

And the “Vitamin D3 rating (stability)” value ([6]; Test 1, week 4, 40° C./75% RH)?
The value was 96.03%.

And the “Vitamin D3 rating (stability)” value ([6]; Test 1, week 4, Cycled 40° C./75% RH-cooling)?
Its value is 96.09%.

What about the “Vitamin D3 rating (stability)” value ([6]; Test 2, week 0, 30° C./65% RH) of the same compound?
The value was 100.00%.

And the “Vitamin D3 rating (stability)” value ([6]; Test 2, week 0, 40° C./75% RH)?
The value was 100.00%.

And the “Vitamin D3 rating (stability)” value ([6]; Test 2, week 0, Cycled 40° C./75% RH-cooling)?
The value was 100.00%.

And the “Vitamin D3 rating (stability)” value ([6]; Test 2, week 1, 30° C./65% RH)?
The value was 97.34%.

What about the “Vitamin D3 rating (stability)” value ([6]; Test 2, week 1, 40° C./75% RH) of the same compound?
Its value is 99.62%.

What about the “Vitamin D3 rating (stability)” value ([6]; Test 2, week 1, Cycled 40° C./75% RH-cooling) of the same compound?
The value was 95.55%.

What about the “Vitamin D3 rating (stability)” value ([6]; Test 2, week 2, 30° C./65% RH) of the same compound?
The value was 96.93%.

What about the “Vitamin D3 rating (stability)” value ([6]; Test 2, week 2, 40° C./75% RH) of the same compound?
The value was 97.80%.

What about the “Vitamin D3 rating (stability)” value ([6]; Test 2, week 2, Cycled 40° C./75% RH-cooling) of the same compound?
Its value is 96.31%.

What about the “Vitamin D3 rating (stability)” value ([6]; Test 2, week 4, 30° C./65% RH) of the same compound?
The value was 94.79%.

What about the “Vitamin D3 rating (stability)” value ([6]; Test 2, week 4, 40° C./75% RH) of the same compound?
Its value is 96.32%.

What about the “Vitamin D3 rating (stability)” value ([6]; Test 2, week 4, Cycled 40° C./75% RH-cooling) of the same compound?
The value was 94.79%.

What about the “decrease in the vitamin D3 rating” value ([6]; over the four weeks under the different conditions) of the same compound?
The value was 5.96%.
